Measurements published in patent KR20110129297A, “양친매성 갈롤 유도체를 유효성분으로 포함하는 항균제조성물” (전남대학교산학협력단, priority 2010, dated 2011).
≈ marks a conversion by molar mass, not a printed value. Entries after “also recorded” stand apart in the source; their conditions may differ. Read-outs that look alike come from different tables or passages of the source.

How the values were obtained:
[1] = tested on: Helicobacter pylori [헬리코박터 파일로리]; experiment: Paper disc growth inhibition zone, Helicobacter pylori; format: cell-based; details: for zone of inhibition at 5 µmol/disc: Helicobacter pylori, read-out: diameter of growth inhibition zone
S. aureus = experiment: Minimum inhibitory concentration, Staphylococcus aureus; format: cell-based; details: 37 °C, 12-16 h, inoculum 10^5-10^7 cfu/mL, read-out: minimum inhibition concentration (MIC)
[2] = no test in this patent; mouse allergy test of urushiol derivatives cited (b4); cited from earlier work
[3] = tested on: food spoilage bacteria and pathogens [식품부패균 및 병원성균]; experiment: Paper disc growth inhibition zone, food spoilage bacteria and pathogens (9 strains); format: cell-based; details: 5 μmol per disc, solid medium, 12-16 h at 37, 30 or 25 °C depending on strain
[4] = tested on: food spoilage bacteria and pathogens [식품부패균 및 병원성균]; experiment: Minimum inhibitory concentration, food spoilage bacteria and pathogens (9 strains); format: cell-based; details: liquid dilution 1000-4 μg/mL
[5] = tested on: cells causing lung cancer or stomach cancer [폐암이나 위암을 일으키는 세포]; details: background statement; cited from earlier work
[6] = cited master's thesis / KR 2009066135 A; cited from earlier work
[7] = paper disc, 5 μmol per disc, CO2 incubator 37 °C, 10% CO2, 95% humidity

| SMILES | zone of inhibition at 5 µmol/disc [1, 7] [mm] | antimicrobial activity (growth inhibition zone), in words [3] | also measured |
| --- | --- | --- | --- |
| CC1(C)S[C@@H]2[C@H](NC(=O)[C@H](N)c3ccccc3)C(=O)N2[C@H]1C(=O)O [앰피실린, ampicillin] | 7 | – | – |
| CCCCCCCCCCc1ccc(O)c(O)c1O [DG, 4-decyl-1,2,3-benzenetriol] | 7 | – | – |
| O=C(O)c1ccccc1 [벤조익 에시드, benzoic acid] | – | – | MIC (S. aureus): 250 µM (≈ 30.5 µg/mL) |
| CCCCCc1ccc(O)c(O)c1O [PG, 4-pentyl-1,2,3-benzenetriol] | 26.7 ± 0.6 | 가장 강한 항균활성을 보였다; also recorded: PC와 비슷하거나 그보다 우수한 항균활성을 보였다 | allergenicity, in words [2]: 알러지 비유발성; antimicrobial activity by minimum inhibition concentration, in words [4]: 최소저해농도 결과에 있어서 뛰어난 항균활성을 나타내지 않았다; also recorded: 측쇄가 없는 G보다는 PG가 더 낮은 농도에서 활성을 보였다; antimicrobial activity (growth inhibition zone), in words ([1]; paper disc, 5 μmol per disc, compared with other gallol derivatives): 가장 강한 항균활성을 보였다 |
| CN(C)[C@@H]1C(O)=C(C(N)=O)C(=O)[C@@]2(O)C(O)=C3C(=O)c4c(O)cccc4[C@@](C)(O)[C@H]3C[C@@H]12 [테트라사이클린, tetracycline] | 9 | – | – |
| Oc1cccc(O)c1O [G, pyrogallol] | 0 | 매우 약한 항균활성을 보였으며 | inhibition of cancer cell growth, in words [5]: 폐암이나 위암을 일으키는 세포의 생장을 억제시키는 항암작용에도 효과가 있음 |
| CCn1cc(C(=O)O)c(=O)c2ccc(C)nc21 [날리디식 에시드, nalidixic acid] | 11 ± 0.2 | – | – |
| CCCCCCCCCCCCCCCc1ccc(O)c(O)c1O [PDG, 4-pentadecyl-1,2,3-benzenetriol] | – | 전혀 항균활성을 보이지 않았다 | zone of inhibition at 5 µmol/disc [1]: 0 mm |
| CCCCCCCCCCCCCCCCCCCCc1ccc(O)c(O)c1O [EG, 4-eicosyl-1,2,3-benzenetriol] | 0 | 전혀 항균활성을 보이지 않았다 | – |
| CC[C@H]1OC(=O)[C@H](C)[C@@H](O[C@H]2C[C@@](C)(OC)[C@@H](O)[C@H](C)O2)[C@H](C)[C@@H](O[C@@H]2O[C@H](C)C[C@H](N(C)C)[C@H]2O)[C@](C)(O)C[C@@H](C)C(=O)[C@H](C)[C@@H](O)[C@]1(C)O [에리스로마이신, erythromycin] | 7 | – | – |
| CCCCCc1cccc(O)c1O [PC, 3-pentylcatechol] | 31.5 ± 0.5 | – | allergenicity, in words [2]: 알러지 비유발성; antimicrobial activity, in words [6]: 강한 항균활성을 보였던 |
